Measured values published in PubChem BioAssay (NCI).
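Five concentrations, 48 hours, 96-well plates. Here, GI50 denotes the concentration required for 50% inhibition of growth. The concentration for full growth arrest is given as TGI.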

Legend:
Assay in all cases: NCI tumour cell line growth inhibition, 48 h
SK-OV-3 ovarian = system: SK-OV-3 ovarian
SK-MEL-2 melanoma = system: SK-MEL-2 melanoma
HOP-62 NSCLC = system: HOP-62 NSCLC
A498 renal = system: A498 renal
SW-620 colon = system: SW-620 colon
IGROV1 ovarian = system: IGROV1 ovarian
U251 CNS = system: U251 CNS
COLO 205 colon = system: COLO 205 colon
HCT-15 colon = system: HCT-15 colon
BT-549 breast = system: BT-549 breast

Compound	TGI (SK-OV-3 ovarian) [µM]	TGI (SK-MEL-2 melanoma) [µM]	TGI (HOP-62 NSCLC) [µM]	TGI (A498 renal) [µM]	TGI (SW-620 colon) [µM]	TGI (IGROV1 ovarian) [µM]	TGI (U251 CNS) [µM]	TGI (COLO 205 colon) [µM]	TGI (HCT-15 colon) [µM]	GI50 (SK-MEL-2 melanoma) [µM]	GI50 (HOP-62 NSCLC) [µM]	GI50 (SW-620 colon) [µM]	GI50 (HCT-15 colon) [µM]	GI50 (IGROV1 ovarian) [µM]	GI50 (BT-549 breast) [µM]	TGI (BT-549 breast) [µM]	GI50 (U251 CNS) [µM]	GI50 (COLO 205 colon) [µM]	GI50 (SK-OV-3 ovarian) [µM]
COc1ccc(OCC(=O)O)c2c1CCC(C(C)C)C2=O (stereo unspecified)	> 100	> 100	> 100	> 100	> 100	> 100	> 100	> 100	–	–	–	–	–	–	–	–	–	–	–
CC[C@@H]1C[C@@H]2CN3CCc4c([nH]c5ccc(OC)cc45)C(COC(=O)c4ccc(OC)c(OC)c4)(C2)C13	–	–	93	61.4	40.1	74.5	43.6	> 100	> 100	–	–	–	–	–	–	–	–	–	–
CC(=O)Nc1ccc(/C=C(\NC(=O)c2ccccc2)c2nc3ccc4c(c3[nH]2)C(=O)c2ccccc2C4=O)cc1	> 100	> 100	> 100	> 100	> 100	> 100	> 100	> 100	> 100	–	–	–	–	–	–	–	–	–	–
COc1ccc2[nH]cc(CCNC(C)=O)c2c1	> 100	> 100	> 100	> 100	24.1	> 100	> 100	85.5	> 100	–	–	–	–	–	–	–	–	–	–
COC(=O)C1(C)C=C(Nc2ccccc2)C(=O)N1c1ccccc1 (stereo unspecified)	> 100	> 100	> 100	–	> 100	> 100	> 100	–	–	–	–	–	–	–	–	–	–	–	–
CC(=O)N(C)OC(=O)CC(=O)c1ccccc1	> 100	–	> 100	–	> 100	> 100	> 100	> 100	–	–	–	–	–	–	–	–	–	–	–
CN(C)/[N+]([O-])=N/Oc1cc(Nc2cccc(C(=O)O)c2)c([N+](=O)[O-])cc1[N+](=O)[O-]	–	> 100	> 100	–	> 100	> 100	> 100	> 100	> 100	36	32.2	> 100	> 100	41.1	72.2	> 100	35.3	> 100	–
O=S(=O)([O-])[O-].[OH3+].[OH3+].[OH3+].[Ru+2].c1ccccc1	> 100	> 100	–	–	–	> 100	> 100	> 100	> 100	> 100	–	–	> 100	> 100	–	–	> 100	> 100	> 100
Cn1ncc(=S)[nH]c1=S	> 100	> 100	> 100	> 100	> 100	> 100	> 100	> 100	> 100	–	–	–	–	–	–	–	–	–	–
CCN(CC)CCCN(c1cc(OC)cc2nccnc12)S(=O)(=O)c1ccc(C)cc1	> 100	> 100	> 100	> 100	> 100	> 100	> 100	> 100	> 100	–	–	–	–	–	–	–	–	–	–
O=C1NC(=O)C(C(=O)C(=O)Nc2ccc(Br)cc2)C(=O)N1	> 100	–	–	> 100	> 100	> 100	> 100	> 100	> 100	–	–	–	–	–	–	–	–	–	–
CC(C)(C)NNC(=O)/C(=C/c1ccc(Oc2ccc(Cl)c(Cl)c2)cc1)NC(=O)c1ccccc1	> 100	> 100	> 100	> 100	–	> 100	> 100	36.8	> 100	–	–	–	–	–	–	–	–	–	–
Oc1cccc2c1NC1=C(CCC/C1=C\c1ccccc1)C2	> 100	–	> 100	–	> 100	> 100	> 100	> 100	> 100	–	–	–	–	–	–	–	–	–	–
CCN(CC)CCn1c(C(C)(C)C)nc2ccccc21	> 100	–	> 100	–	> 100	> 100	> 100	> 100	> 100	–	–	–	–	–	–	> 100	–	–	–
CCCCCCCCCCCCCS(=O)(=O)O	–	> 100	> 100	> 100	> 100	> 100	> 100	> 100	> 100	–	–	–	–	–	–	–	–	–	–
CCCc1c2c([nH]c(=O)c1C)C(=O)c1[nH]c(=O)c(C)c(CCC)c1C2=O	–	–	> 100	> 100	20.2	88.4	–	55.1	58.3	–	–	–	–	–	–	–	–	–	–
Cc1ccc(NC(=O)c2[nH]c(=S)nc(N)c2-c2ccccc2C)cc1C	> 100	> 100	–	> 100	> 100	> 100	> 100	> 100	> 100	–	–	–	–	–	–	–	–	–	–
O=C(Nc1ccc(Cl)c(C(F)(F)F)c1)C(=O)C(C(=O)/C=C/c1ccccc1)C1OC(=O)c2ccccc21 (stereo unspecified)	> 100	–	> 100	> 100	> 100	> 100	> 100	> 100	> 100	–	–	–	–	–	–	–	–	–	–
